For 24 molecules, IC50 results are on record in patent US9481654B2, “Compositions and methods for inhibition of the JAK pathway” (Rigel Pharmaceuticals, Inc., priority 2006, dated 2016).

pIC50: −log10 of the molar value. Structures can show the parent of a compound that is named as a salt.

The first assay has as its system IL-4 stimulated CD23 upregulation in human Ramos B cells (JAK-1/JAK-3, Stat-6). The experiment in a line: Assay for Ramos B-Cell Line Stimulated with IL-4 (CD23 upregulation, FACS). Type of assay: cell-based. The conditions noted are these: Table III Example 3. An excerpt:
One means of assaying for such inhibition is detection of the effect of the 2,4-pyrimidinediamine compounds on the upregulation of downstream gene products. In the Ramos/IL4 assay, B-cells are stimulated with the cytokine Interleukin-4 (IL-4) leading to the activation of the JAK/Stat pathway through phosphorylation of the JAK family kinases, JAK1 and JAK3, which in turn phosphorylate and activate the transcription factor Stat-6. […] To study the effect of inhibitors (e.g., the 2,4-substituted pyrimindinediamine compounds described herein) on the JAK1 and JAK3 kinases, human Ramos B cells are stimulated with human IL-4. 20 to 24 hours post stimulation, cells are stained for upregulation of CD23 and analyzed using flow cytometry (FACS).
B-cells stimulated with cytokine Interleukin-4 (IL-4) activate the JAK/Stat pathway through phosphorylation of the JAK family kinases, JAK-1 and JAK-3, which in turn phosphorylate and activate the transcription factor Stat-6. […] To study the effect of inhibitors on the JAK family kinases, human Ramos B cells are stimulated with human IL-4.
Cells were maintained at a density of 3.5×10^5. The day before the experiment, Ramos B-cells were diluted to 3.5×10^5 cells/mL to ensure that they were in a logarithmic growth phase.
Cells were spun down and suspended in RPMI with 5% serum. 5×10^4 cells were used per point in a 96-well tissue culture plate. Cells were pre-incubated with compound or DMSO (Sigma-Aldrich, St. Louis, Mo., Cat No. D2650) vehicle control for 1 hour in a 37° C. incubator. Cells were then stimulated with IL-4 (Peprotech Inc., Rocky Hill, N.J., Cat No. 200-04) for a final concentration of 50 units/mL for 20-24 hours. […] Detection was performed using a BD LSR I System Flow Cytometer, purchased from Becton Dickinson Biosciences of San Jose, Calif.
The term pIC50 denotes the IC50 on a negative log10 scale, so that one unit is a factor of ten. On to `CCC(=O)NS(=O)(=O)c1cccc(Nc2ncc(F)c(Nc3ccc(CNS(=O)(=O)C4CC4)cc3)n2)c1` [Compound I-57, N4-(4-cyclopropylsulfonylaminomethyl)phenyl-5-fluoro-N2-(3-propionylaminosulfonyl)phenyl-2,4-pyrimidinediamine], for which the pIC50 is 4.91.
In the case of `CCC(=O)NS(=O)(=O)c1cccc(Nc2ncc(F)c(Nc3ccc(CN(C(=O)CC)S(=O)(=O)C4CC4)cc3)n2)c1` [Compound I-58, N4-[4-(N-cyclopropylsulfonyl-N-propionyl)aminomethyl]phenyl-5-fluoro-N2-(3-propionylaminosulfonyl)phenyl-2,4-pyrimidinediamine], the pIC50 was 4.95.
In the case of `CCC(=O)NS(=O)(=O)c1cc(Nc2ncc(F)c(Nc3ccc(CNS(=O)(=O)C4CC4)cc3)n2)ccc1C` [Compound I-59, N4-(4-cyclopropylsulfonylaminomethyl)phenyl-5-fluoro-N2-(4-methyl-3-propionylaminosulfonyl)phenyl-2,4-pyrimidinediamine], the pIC50 is 5.19.
The molecule `CCC(=O)NS(=O)(=O)c1cc(Nc2ncc(F)c(Nc3ccc(CN(C(=O)CC)S(=O)(=O)C4CC4)cc3)n2)ccc1C` [Compound I-60, N4-[4-(N-cyclopropylsulfonyl-N-propionyl)aminomethyl]phenyl-5-fluoro-N2-(4-methyl-3-propionylaminosulfonyl)phenyl-2,4-pyrimidinediamine] gave a pIC50 of 5.15.
With `CCC(=O)NS(=O)(=O)c1ccc(Nc2ncc(C)c(Nc3ccc(CN(C(=O)CC)S(=O)(=O)C4CC4)cc3)n2)cc1` [Compound I-77, N4-[4-(N-cyclopropylsulfonyl-N-propionyl)aminomethyl]phenyl-5-methyl-N2-(4-propionylaminosulfonyl)phenyl-2,4-pyrimidinediamine], the pIC50 is 5.91.
The same measure, in the same setting: the result for `CCC(=O)NS(=O)(=O)c1ccc(Nc2ncc(C)c(Nc3ccc(CN(C(=O)CC)S(=O)(=O)CC)cc3)n2)cc1` [Compound I-91, N4-[4-(N-ethylsulfonyl-N-propionyl)aminomethyl]phenyl-5-methyl-N2-(4-propionylaminosulfonyl)phenyl-2,4-pyrimidinediamine] reads 5.89; that for `CCC(=O)NS(=O)(=O)c1cccc(Nc2ncc(C)c(Nc3cccc(CN(C(=O)CC)S(=O)(=O)C4CC4)c3)n2)c1` [Compound I-93, N4-[3-(N-cyclopropylsulfonyl-N-propionyl)aminomethyl]phenyl-5-methyl-N2-(3-propionylaminosulfonyl)phenyl-2,4-pyrimidinediamine], 5.55.
In turn, `CCOC(=O)N(CC)S(=O)(=O)c1cccc(Nc2ncc(C)c(Nc3cccc(CNS(=O)(=O)C4CC4)c3)n2)c1` [Compound I-130, N4-(3-cyclopropylsulfonylaminomethyl)phenyl-N2-[3-(N-ethoxycarbonyl-N-ethyl)aminosulfonyl]phenyl-5-methyl-2,4-pyrimidinediamine] showed a pIC50 of 6.26.
As for `Cc1cnc(Nc2cccc(S(=O)(=O)NC(=O)CN)c2)nc1Nc1cccc(CNS(=O)(=O)C2CC2)c1` [Compound I-131, N2-[3-N-(2-amino-1-oxoethyl)aminosulfonyl]phenyl-N4-(3-cyclopropylsulfonylaminomethyl)phenyl-5-methyl-2,4-pyrimidinediamine], the negative logarithm of the IC50 (pIC50) is 6.25.
On the same count and under the same terms, the result for `Cc1cnc(Nc2cccc(S(=O)(=O)NC(=O)[C@@H](N)Cc3ccccc3)c2)nc1Nc1cccc(CNS(=O)(=O)C2CC2)c1` [Compound I-132, N2-[3-N-(L-Phe)aminosulfonyl]phenyl-N4-(3-cyclopropylsulfonylaminomethyl)phenyl-5-methyl-2,4-pyrimidinediamine hydrogen chloride salt] reads 6.23.
On to `Cc1cnc(Nc2cccc(S(=O)(=O)NC(=O)[C@@H](N)Cc3ccccc3)c2)nc1Nc1cccc(CNS(=O)(=O)C2CC2)c1` [Compound I-134, N2-[3-N-(L-Phe)aminosulfonyl]phenyl-N4-(3-cyclopropylsulfonylaminomethyl)phenyl-5-methyl-2,4-pyrimidinediamine], for which the pIC50 was 6.12.
As for `CCC(=O)NS(=O)(=O)c1cccc(Nc2ncc(C)c(Nc3cccc(CNS(=O)(=O)C4CC4)c3)n2)c1` [Compound I-136, N4-(3-cyclopropylsulfonylaminomethyl)phenyl-5-methyl-N2-(3-propionylaminosulfonyl)phenyl-2,4-pyrimidinediamine], the pIC50 is 5.79.
Still for that read-out and setting: the result for `Cc1cnc(Nc2cccc(S(=O)(=O)N[C@H](C(=O)O)C(C)C)c2)nc1Nc1cccc(CNS(=O)(=O)C2CC2)c1` [Compound I-138, N2-[3-N-(L-Val)aminosulfonyl]phenyl-N4-(3-cyclopropylsulfonylaminomethyl)phenyl-5-methyl-2,4-pyrimidinediamine] reads 5.62; that for `Cc1cnc(Nc2cccc(S(=O)(=O)NC(=O)[C@H](Cc3ccccc3)NC(=O)OCc3ccccc3)c2)nc1Nc1cccc(CNS(=O)(=O)C2CC2)c1` [Compound I-139, N2-[3-N-(Cbz-L-Phe)aminosulfonyl]phenyl-N4-(3-cyclopropylsulfonylaminomethyl)phenyl-5-methyl-2,4-pyrimidinediamine], 5.48; that for `Cc1cnc(Nc2cccc(S(=O)(=O)NC(=O)CNC(=O)OC(C)(C)C)c2)nc1Nc1cccc(CNS(=O)(=O)C2CC2)c1` [Compound I-140, N2-{3-N-[2-(t-butoxycarbonylamino)-1-oxoethyl]aminosulfonyl}phenyl-N4-(3-cyclopropylsulfonylaminomethyl)phenyl-5-methyl-2,4-pyrimidinediamine], 5.40.

Still in this assay, the particulars now being: Table III Example 3, sodium salt.
Consider `CCC(=O)NS(=O)(=O)c1cccc(Nc2ncc(F)c(Nc3ccc(CNS(=O)(=O)C4CC4)cc3)n2)c1` [Compound I-61, N4-(4-cyclopropylsulfonylaminomethyl)phenyl-5-fluoro-N2-(3-propionylaminosulfonyl)phenyl-2,4-pyrimidinediamine sodium salt], for which the pIC50 was 4.72.
The same measure, in the same setting: the result for `CCC(=O)NS(=O)(=O)c1cccc(Nc2ncc(F)c(Nc3ccc(CN(C(=O)CC)S(=O)(=O)C4CC4)cc3)n2)c1` [Compound I-62, N4-[4-(N-cyclopropylsulfonyl-N-propionyl)aminomethyl]phenyl-5-fluoro-N2-(3-propionylaminosulfonyl)phenyl-2,4-pyrimidinediamine sodium salt] reads 4.97; that for `CCC(=O)NS(=O)(=O)c1cc(Nc2ncc(F)c(Nc3ccc(CNS(=O)(=O)C4CC4)cc3)n2)ccc1C` [Compound I-63, N4-(4-cyclopropylsulfonylaminomethyl)phenyl-5-fluoro-N2-(4-methyl-3-propionylaminosulfonyl)phenyl-2,4-pyrimidinediamine sodium salt], 5.02; that for `CCC(=O)NS(=O)(=O)c1cc(Nc2ncc(F)c(Nc3ccc(CN(C(=O)CC)S(=O)(=O)C4CC4)cc3)n2)ccc1C` [Compound I-64, N4-[4-(N-cyclopropylsulfonyl-N-propionyl)aminomethyl]phenyl-5-fluoro-N2-(4-methyl-3-propionylaminosulfonyl)phenyl-2,4-pyrimidinediamine sodium salt], 5.37.
Consider `CCC(=O)NS(=O)(=O)c1ccc(Nc2ncc(C)c(Nc3ccc(CNS(=O)(=O)C4CC4)cc3)n2)cc1` [Compound I-88, N4-(4-cyclopropylsulfonylaminomethyl)phenyl-5-methyl-N2-(4-propionylaminosulfonyl)phenyl-2,4-pyrimidinediamine sodium salt], for which the pIC50 is 7.22.
The same measure, in the same setting: the result for `CCC(=O)NS(=O)(=O)c1ccc(Nc2ncc(C)c(Nc3ccc(CN(C(=O)CC)S(=O)(=O)CC)cc3)n2)cc1` [Compound I-92, N4-[4-(N-ethylsulfonyl-N-propionyl)aminomethyl]phenyl-5-methyl-N2-(4-propionylaminosulfonyl)phenyl-2,4-pyrimidinediamine sodium salt] reads 6.02; that for `CCC(=O)NS(=O)(=O)c1cccc(Nc2ncc(C)c(Nc3cccc(CN(C(=O)CC)S(=O)(=O)C4CC4)c3)n2)c1` [Compound I-94, N4-[3-(N-cyclopropylsulfonyl-N-propionyl)aminomethyl]phenyl-5-methyl-N2-(3-propionylaminosulfonyl)phenyl-2,4-pyrimidinediamine sodium salt], 5.60.
On to `Cc1cnc(Nc2cccc(S(=O)(=O)NC(=O)[C@H](Cc3ccccc3)NC(=O)OCc3ccccc3)c2)nc1Nc1cccc(CNS(=O)(=O)C2CC2)c1` [Compound I-135, N2-[3-N-(Cbz-L-Phe)aminosulfonyl]phenyl-N4-(3-cyclopropylsulfonylaminomethyl)phenyl-5-methyl-2,4-pyrimidinediamine sodium salt], for which the pIC50 is 6.00.
Same read-out and setting: the result for `CCC(=O)NS(=O)(=O)c1cccc(Nc2ncc(C)c(Nc3cccc(CNS(=O)(=O)C4CC4)c3)n2)c1` [Compound I-137, N4-(3-cyclopropylsulfonylaminomethyl)phenyl-5-methyl-N2-(3-propionylaminosulfonyl)phenyl-2,4-pyrimidinediamine sodium salt] reads 5.72.
